From patent EP1641803B1, “THIENOPYRIMIDINE DERIVATIVES AS POTASSIUM CHANNEL INHIBITORS” (Xention Limited, priority 2003, dated 2004)

Tests used:
human Kv1.5 = biological target: T1, human Kv1.5 (Homo sapiens, UniProt P22460); experiment: Kv1.5 Rb+ Efflux Assay; assay type: cell-based; conditions: inhibition of 86Rb+ efflux through Kv1.5; cells stably transfected with human Kv1.5; 10 point concentration response curves n=2; normalised to 2.5mM 4 amino-pyridine block
T1 construct: expressed in transfected cells
T1 sequence (P22460 whole entry): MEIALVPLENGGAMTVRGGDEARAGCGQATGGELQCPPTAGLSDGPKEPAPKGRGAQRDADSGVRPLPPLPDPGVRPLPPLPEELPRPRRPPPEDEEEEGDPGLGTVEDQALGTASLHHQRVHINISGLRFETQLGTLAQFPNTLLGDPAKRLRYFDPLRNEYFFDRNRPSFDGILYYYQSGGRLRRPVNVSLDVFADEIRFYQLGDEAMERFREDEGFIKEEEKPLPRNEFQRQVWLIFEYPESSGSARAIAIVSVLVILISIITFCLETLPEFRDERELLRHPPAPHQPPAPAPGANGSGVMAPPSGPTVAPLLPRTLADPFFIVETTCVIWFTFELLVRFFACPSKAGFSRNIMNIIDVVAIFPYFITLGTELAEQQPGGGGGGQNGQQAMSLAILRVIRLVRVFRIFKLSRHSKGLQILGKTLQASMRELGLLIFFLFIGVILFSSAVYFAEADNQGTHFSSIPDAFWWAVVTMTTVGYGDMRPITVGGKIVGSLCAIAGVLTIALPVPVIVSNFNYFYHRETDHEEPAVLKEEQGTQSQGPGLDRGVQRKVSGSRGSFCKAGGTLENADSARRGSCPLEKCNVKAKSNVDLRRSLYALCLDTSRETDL
In short: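 Cells stably expressing human Kv1.5 loaded with ⁸⁶Rb⁺ ≥3 h, preincubated 10 min at room temperature with compound, then depolarised with high-KCl (145mM) buffer for 10 min; effluxed ⁸⁶Rb⁺ counted by Cerenkov emission (alternatively ⁸⁵Rb⁺ by atomic absorption). Inhibition normalised to 2.5mM 4-aminopyridine block; IC50 from 10-point curves, n=2, variable-slope sigmoidal fit.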

hKv1.5 = hKv1.5 (Homo sapiens, UniProt P22460); experiment: Kv1.5 Autopatch Electrophysiology (whole cell patch-clamp); assay type: cell-based; conditions: compound at 1µM, room temperature (22-24°C), held at -80mV, step to 0mV for 1000ms, total charge measured
Chain of hKv1.5 (P22460 whole entry): as above
In short: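 Whole-cell automated patch-clamp at 22-24°C, compounds tested at 1µM in external bather (KCl/K-gluconate, pH 7.4; KCl/EGTA pipette). Cells held at -80mV and stepped to 0mV for 1000ms every 5s; only cells with IK > 500 pA and Rseries ≤18 MΩ used. Read-out: total charge over the whole step.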

SMILES | IC50 (human Kv1.5) | inhibition at 1 µM (hKv1.5) | % Inhibition at 1µM (hKv1.5)
CCOC(=O)Cc1nc(NCc2ccccn2)c2c(-c3ccccc3)csc2n1 [Example 237, {5-Phenyl-4-[(pyridin-2-ylmethyl)amino]thieno[2,3-d]pyrimidin-2-yl} acetic acid ethyl ester] | 540 nM | 95% | –
CCc1nc(NCc2ccco2)c2c(-c3ccccc3)csc2n1 [Example 153, (2-Ethyl-5-phenyl-thieno[2,3-d]pyrimidin-4-yl)-furan-2-ylmethyl-amine] | 3630 nM | 96.8% | –
CNc1nc(NCc2ccccn2)c2c(-c3ccc(F)cc3)csc2n1 [Example 204, 5-(4-Fluorophenyl)-N^2-methyl-N^4-pyridin-2-ylmethyl-thieno[2,3-d]pyrimidine-2,4-diamine] | 4700 nM | 97.9% | –
Cc1nc(NCc2ccco2)c2c(-c3ccccc3)csc2n1 [Example 150, Furan-2-ylmethyl-(2-methyl-5-phenyl-thieno[2,3-d]pyrimidin-4-yl)-amine] | 140 nM | 96.8% | –
COC(=O)CNc1ncnc2scc(-c3ccccc3)c12 [Example 112, (5-Phenyl-thieno[2,3-d]pyrimidin-4-ylamino)-acetic acid methyl ester] | 5030 nM | 43.5% | –
c1ccc(-c2csc3ncnc(NCc4ccccn4)c23)cc1 [Example 105, (5-Phenyl-thieno[2,3-d]pyrimidin-4-yl)-pyridin-2-ylmethyl-amine] | 280 nM | 63% | –
COc1ccc(-c2csc3ncnc(NCc4ccco4)c23)cc1 [Example 139, Furan-2-ylmethyl-[5-(4-methoxy-phenyl)-thieno[2,3-d]pyrimidin-4-yl]-amine] | 1680 nM | 46.9% | –
c1csc(CNc2ncnc3scc(-c4cccs4)c23)c1 [Example 98, Thiophen-2-ylmethyl-(5-thiophen-2-yl-thieno[2,3-d]pyrimidin-4-yl)-amine] | 6950 nM | – | 21.0%
c1ccc(-c2csc3ncnc(NC4CCCc5ccccc54)c23)cc1 (stereo not drawn) [Example 158, (5-Phenyl-thieno[2,3-d]pyrimidin-4-yl)-(1,2,3,4-tetrahydro-naphthalen-1-yl)-amine] | 17700 nM | 83.4% | –
COc1cc(CNc2ncnc3scc(-c4cccs4)c23)cc(OC)c1OC [Example 94, (5-Thiophen-2-yl-thieno[2,3-d]pyrimidin-4-yl)-(3,4,5-trimethoxy-benzyl)-amine] | > 30000 nM | 19.4% | –
c1ccc(-c2csc3ncnc(NCc4cccs4)c23)cc1 [Example 85, (5-Phenyl-thieno[2,3-d]pyrimidin-4-yl)-thiophen-2-ylmethyl-amine] | 4210 nM | 24.2% | –
OCC(CO)c1nc(NCc2ccccn2)c2c(-c3ccccc3)csc2n1 [Example 275, 2-{5-Phenyl-4-[(pyridin-2-ylmethyl)-amino]-thieno[2,3-d]pyrimidin-2-yl}-propane-1,3-diol] | 1530 nM | 93% | –
OCCc1nc(NCc2ccco2)c2c(-c3ccccc3)csc2n1 [Example 251, 2-{4-[(Furan-2-ylmethyl)-amino]-5-phenyl-thieno[2,3-d]pyrimidin-2-yl}-ethanol] | 80 nM | 98% | –
Cc1nc(NCc2ccccn2)c2c(-c3ccc(F)cc3)csc2n1 [Example 155, [5-(4-Fluorophenyl)-2-methyl-thieno[2,3-d]pyrimidin-4-yl]-pyridin-2-ylmethyl-amine] | 1620 nM | 92.2% | –
Cc1ccc(-c2csc3ncnc(NCc4ccco4)c23)cc1 [Example 126, Furan-2-ylmethyl-(5-p-tolyl-thieno[2,3-d]pyrimidin-4-yl)-amine] | 470 nM | 83.4% | –
c1ccc(-c2csc3ncnc(SCc4ccco4)c23)cc1 [Example 117, 4-(Furan-2-ylmethylsulfanyl)-5-phenyl-thieno[2,3-d]pyrimidine] | 9370 nM | 43.6% | 57.2%
Cn1cccc1CNc1ncnc2scc(-c3ccccc3)c12 [Example 110, (1-Methyl-1H-pyrrol-2-ylmethyl)-(5-phenyl-thieno[2,3-d]pyrimidin-4-yl)-amine] | 3900 nM | 14.2% | –
Cc1ccc(-c2csc3ncnc(NCc4ccco4)c23)nc1 [Example 122, Furan-2-ylmethyl-[5-(5-methyl-pyridin-2-yl)-thieno[2,3-d]pyrimidin-4-yl]-amine] | 3530 nM | 36.3% | –
c1ccc(-c2csc3ncnc(NCc4ccco4)c23)cc1 [Example 83, Furan-2-ylmethyl-(5-phenyl-thieno[2,3-d]pyrimidin-4-yl)-amine] | 70 nM | 21.9% | –

SMILES | IC50 (human Kv1.5) | inhibition at 1 µM (hKv1.5) | % Inhibition at 1µM (hKv1.5)
c1ccc(-c2csc3ncnc(NCCc4ccccn4)c23)cc1 [Example 111, (5-Phenyl-thieno[2,3-d]pyrimidin-4-yl)-(2-pyridin-2-yl-ethyl)-amine] | 4490 nM | 40% | 22.2%
c1coc(CNc2ncnc3scc(C4CCCCC4)c23)c1 [Example 147, (5-Cyclohexyl-thieno[2,3-d]pyrimidin-4-yl)-furan-2-ylmethyl-amine] | 2520 nM | 71% | –
CCc1sc2ncnc(NCc3ccco3)c2c1-c1ccccc1 [Example 140, (6-Ethyl-5-phenyl-thieno[2,3-d]pyrimidin-4-yl)-furan-2-ylmethyl-amine] | 2710 nM | 74.2% | –
c1csc(CNc2ncnc3scc(-c4cccs4)c23)c1 [Example 115, Thiophen-2-ylmethyl-(5-thiophen-2-yl-thieno[2,3-d]pyrimidin-4-yl)-amine] | 7070 nM | – | 45.9%
c1ccc(-c2csc3nc(N4CCOCC4)nc(NCc4ccccn4)c23)cc1 [Example 197, (2-Morpholin-4-yl-5-phenyl-thieno[2,3-d]pyrimidin-4-yl)-pyridin-2-ylmethyl-amine] | 150 nM | 98% | –
Cc1ccc(CNc2ncnc3scc(-c4ccccc4)c23)o1 [Example 108, (5-Methyl-furan-2-ylmethyl)-(5-phenyl-thieno[2,3-d]pyrimidin-4-yl)-amine] | 410 nM | 37.2% | –
c1ccc(COc2nc(NCc3ccco3)c3c(-c4ccccc4)csc3n2)cc1 [Example 195, (2-Benzyloxy-5-phenyl-thieno[2,3-d]pyrimidin-4-yl)-furan-2-ylmethyl-amine] | 6390 nM | 90% | –
COCCNc1nc(NCc2ccccn2)c2c(-c3ccc(F)cc3)csc2n1 [Example 209, 5-(4-Fluorophenyl)-N^2-(2-methoxy-ethyl)-N^4-pyridin-2-ylmethyl-thieno[2,3-d]pyrimidine-2,4-diamine] | 1830 nM | 96% | –
Cc1ccccc1-c1csc2ncnc(NCc3ccco3)c12 [Example 143, Furan-2-ylmethyl-(5-o-tolyl-thieno[2,3-d]pyrimidin-4-yl)-amine] | 1320 nM | 63% | –
Cc1sc2ncnc(N3CCCCC3)c2c1-c1ccccc1 [Example 159, 6-Methyl-5-phenyl-4-piperidin-1-yl-thieno[2,3-d]pyrimidine] | 13400 nM | 83% | –
COc1cccc(-c2csc3ncnc(NCc4ccccn4)c23)c1 [Example 322, [5-(3-Methoxyphenyl)-thieno[2,3-d]pyrimidin-4-yl]-pyridin-2-ylmethyl-amine] | 260 nM | 94% | –
Clc1nc(NCc2ccccn2)c2c(-c3ccccc3)csc2n1 [Example 181, (2-Chloro-5-phenyl-thieno[2,3-d]pyrimidin-4-yl)-pyridin-2-ylmethyl-amine] | 4130 nM | 96% | –
c1csc(-c2csc3ncnc(NCC4CC4)c23)c1 [Example 95, Cyclopropylmethyl-(5-thiophen-2-yl-thieno[2,3-d]pyrimidin-4-yl)-amine] | 4510 nM | 32.6% | –
c1ccc(CNc2ncnc3scc(-c4ccc5c(c4)OCCO5)c23)nc1 [Example 320, [5-(2,3-Dihydro-benzo[1,4]dioxin-6-yl)-thieno[2,3-d]pyrimidin-4-yl]-pyridin-2-ylmethyl-amine] | 370 nM | 97% | –
c1ccc(CNc2ncnc3scc(-c4cccs4)c23)cc1 [Example 97, Benzyl-(5-thiophen-2-yl-thieno[2,3-d]pyrimidin-4-yl)-amine] | 6530 nM | 43.3% | –
Clc1nc(NCc2ccco2)c2c(-c3ccccc3)csc2n1 [Example 182, (2-Chloro-5-phenyl-thieno[2,3-d]pyrimidin-4-yl)-furan-2-ylmethyl-amine] | 1040 nM | 75.8% | –
OCCNc1nc(NCc2ccccn2)c2c(-c3ccc(F)cc3)csc2n1 [Example 212, 2-{5-(4-Fluorophenyl)-4-[(pyridin-2-ylmethyl)-amino]-thieno[2,3-d]pyrimidin-2-ylamino}-ethanol] | 7630 nM | 87% | –
FC(F)(F)c1nc(NCc2ccccn2)c2c(-c3ccccc3)csc2n1 [Example 151, (5-Phenyl-2-trifluoromethyl-thieno[2,3-d]pyrimidin-4-yl)-pyridin-2-ylmethyl-amine] | 1680 nM | 95% | –
CC(C)CNc1ncnc2scc(-c3cccs3)c12 [Example 96, Isobutyl-(5-thiophen-2-yl-thieno[2,3-d]pyrimidin-4-yl)-amine] | 6320 nM | 22.9% | –
